Source: publication PMC8230474, “Synthesis of Novel Acyl Derivatives of 3-(4,5,6,7-Tetrabromo-1H-benzimidazol-1-yl)propan-1-ols—Intracellular TBBi-Based CK2 Inhibitors with Proapoptotic Properties” (International Journal of Molecular Sciences, 2021)
Read-outs that look alike come from different tables or passages of the source.

What was measured:
[1] = design: method as in PMID 8876860, PMID 9760686; conditions: higher than the parent anti-herpesvirus agent; cited from earlier work
MCF-7 cells [2] = assay: Annexin V-FITC/PI flow cytometry, MCF-7; type: cell-based, human; conditions: MCF-7, 72 h treatment, compound at its EC50
Procedure: Additionally, assaying annexin V-binding to phosphatidylserine by means of flow cytometry confirmed that derivatives 3c and 6a–c induced apoptosis in both cell lines (Figure 9, Figure S3).
MCF-7 cells were seeded in six-well plates at 1.5 × 10^5 cells/well. […] Then, the plates were incubated for 24 h or 72 h. After exposure to the examined compounds, the floating cells were collected, and monolayer cell culture was trypsinized. The cells were centrifugated at 200× g at 4 °C for 5 min, washed twice in cold phosphate-buffered saline (PBS), and subsequently suspended in binding buffer at 1 × 10^6 cells/mL. Subsequently, 100-μL aliquots of the cell suspension were labeled according to the kit manufacturer’s instructions. Briefly, annexin V-fluorescein isothiocyanate and propidium iodide (BD Biosciences, Pharmingen, San Diego, CA, USA) were added to the cell suspension, and the mixture was vortexed and then incubated for 15 min at RT in the dark. A cold binding buffer (900 μL) was then added and the cells were vortexed again and kept on ice. Flow cytometric measurements were performed within 1 h after labeling. Viable, necrotic, early, and late apoptotic cells were detected by flow cytometry using CyFlow Cube 8 (Sysmex, Norderstedt, Germany) flow cytometer.

[3] = molecular target: CK2 holoenzyme (CK2 α2β2) (Homo sapiens, UniProt P68400); assay: Radiometric (P81 filter isotopic) kinase assay, CK2 holoenzyme; type: biochemical; conditions: read-out: Residual Activity of the Enzyme CK2 α2β2
Chain of CK2 holoenzyme (CK2 α2β2) (P68400 whole entry): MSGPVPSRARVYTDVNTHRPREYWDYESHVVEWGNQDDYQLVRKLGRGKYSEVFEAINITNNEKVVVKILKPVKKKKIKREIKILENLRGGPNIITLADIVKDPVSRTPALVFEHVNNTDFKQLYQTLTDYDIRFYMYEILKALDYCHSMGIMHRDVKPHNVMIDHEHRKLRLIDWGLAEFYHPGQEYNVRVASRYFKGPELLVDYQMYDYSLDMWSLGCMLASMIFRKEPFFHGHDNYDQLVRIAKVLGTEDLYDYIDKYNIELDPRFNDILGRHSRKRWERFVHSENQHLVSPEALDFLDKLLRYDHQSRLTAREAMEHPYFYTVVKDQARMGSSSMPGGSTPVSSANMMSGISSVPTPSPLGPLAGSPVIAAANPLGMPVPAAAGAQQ
Chain of CK2 holoenzyme (CK2 α2β2) (P67870 whole entry partner): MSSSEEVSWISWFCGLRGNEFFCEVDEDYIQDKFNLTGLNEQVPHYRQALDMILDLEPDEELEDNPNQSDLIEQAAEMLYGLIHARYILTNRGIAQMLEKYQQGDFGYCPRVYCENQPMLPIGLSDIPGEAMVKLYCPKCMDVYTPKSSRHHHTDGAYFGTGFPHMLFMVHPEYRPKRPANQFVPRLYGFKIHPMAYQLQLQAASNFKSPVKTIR

[4] = molecular target: human CK2 catalytic subunit (CK2α) (Homo sapiens, UniProt P68400); assay: Radiometric (P81 filter isotopic) kinase assay, CK2 catalytic subunit; type: biochemical; conditions: read-out: Residual Activity of the Enzyme CK2α
Chain of human CK2 catalytic subunit (CK2α) (P68400 whole entry): as the sequence (P68400 whole entry) above

MCF-7 cells [5] = assay: MTT viability assay, MCF-7; type: cell-based; conditions: Homo sapiens, read-out: EC50 ± SD MCF-7
Procedure: (§1) To test the anti-cancer effect of the TBBi derivatives, we treated the MCF-7 and MDA-MB-231 cells with the newly synthesized esters and previously reported compounds [34, 57] at the concentration range of 3.125 to 200 µM for 24 h, 48 h and 72 h. Additionally, the range of concentrations was extended by additional lower concentrations in MCF-7 for compound 4 with the minimum concentration of 0.195 µM. […] The EC50 values, describing the half maximal effective concentration of each tested compound, were calculated and are summarized in Table 2. […] We observed that the EC50 values increase in both cell lines with the elongation of fatty acids chain length in the tested compounds, thus strongly correlating with the decrease of their solubility in biological media as characterized by logS parameter (Table 2). The second reason for the decreased biological activity of the longer-chain aliphatic esters might be attributed to their greater resistance toward intracellular hydrolysis, which directly influences the slower release of the active form of the corresponding CK2 inhibitors. […] However, none of the tested compounds, except for compound 5, decreased the viability of both cell lines in a time-dependent manner (Figure 4).
(§2) MCF-7 and MDA-MB-231 were cultured in high-glucose Dulbecco’s modified Eagle medium (DMEM, Lonza, Basel, Switzerland) supplemented with 10% fetal bovine serum (FBS, EuroClone, Siziano, Italy)), 2 mM L-glutamine, and antibiotics (100 U/mL penicillin, 100 µg/mL streptomycin) (Sigma-Aldrich Chemical Company (St. Louis, MO, USA). Cells were grown in 75-cm^2 cell culture flasks (Sarstedt, Nümbrecht, Germany) in a humidified atmosphere of CO2/air (5%/95%) at 37 °C. All the experiments were performed in exponentially growing cultures. Stock solutions of the test compounds were prepared in DMSO and stored in −80 °C for a maximum of one month. For the cytotoxicity studies, stock solutions of the tested compounds were diluted 200-fold with the proper culture medium to obtain the final concentrations.
(§3) After incubation with the tested compounds, an MTT test was performed as described previously. Optical densities were measured at 570 nm using BioTek microplate reader (Winooski, VT, USA). All measurements were carried out in a minimum of three biological replicates.

PIM1 = PIM1 (Homo sapiens, UniProt P11309); assay: Radiometric (P81 filter isotopic) kinase assay, PIM1; type: biochemical; conditions: for Ki: calculated from IC50 by Cheng and Prusoff equation; for remaining activity at 5 µM / remaining activity at 10 µM: read-out: Residual Activity of the Enzyme PIM1
Chain of PIM1 (P11309 whole entry, species assumed): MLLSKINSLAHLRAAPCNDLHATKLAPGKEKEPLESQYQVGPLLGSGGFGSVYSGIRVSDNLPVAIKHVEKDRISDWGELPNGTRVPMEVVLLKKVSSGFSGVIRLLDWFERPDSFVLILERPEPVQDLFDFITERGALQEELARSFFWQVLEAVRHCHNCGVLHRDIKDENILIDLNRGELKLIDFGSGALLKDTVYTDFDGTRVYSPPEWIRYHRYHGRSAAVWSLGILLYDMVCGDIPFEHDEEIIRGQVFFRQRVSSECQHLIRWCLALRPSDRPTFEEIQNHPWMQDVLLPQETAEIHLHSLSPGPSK

MCF-7 cells [6] = assay: Cell cycle progression by flow cytometry, MCF-7; type: cell-based, human; conditions: MCF-7, 72 h, compound at its EC50
MDA-MB-231 cells [7] = assay: MTT viability assay, MDA-MB-231; type: cell-based; conditions: Homo sapiens, read-out: EC50 ± SD MDA-MB-231
Procedure: as §1, §2, §3

[8] = tested on: protein kinase CK2 in MDA-MB-231 cells; assay: Intracellular inhibition of CK2, Western blot of p-Ser529 p65 and p-Ser129 Akt1, MDA-MB-231; type: cell-based, human; conditions: MDA-MB-231, 24 h treatment, compound at its 72-h EC50, relative to untreated control
Excerpt: (§4) We observed an inhibition of CK2 in both cell lines; however, the lower efficiency of CK2 inhibition was detected in MCF-7 considering the extent of Akt1 phosphorylation. The relative level of the phosphorylation of the tested proteins in MDA-MB-231 cells was in the range of 0.32 to 0.80 for p-Ser529 p65 and 0.41 to 0.73 for p-Ser129 Akt1, whereas in MCF-7 cells it was in the range of 0.33 to 0.78 for p-Ser529 p65 and 0.82 to 1.23 for p-Ser129 Akt1, respectively. The lowest phosphorylation levels of the tested proteins were detected in MDA-MB-231 cells for compound 6b with the relative level of 0.41 for Ser129 Akt1 as well as for compound 6c with the relative level of 0.32 for p-Ser529 p65. Among the tested proteins, the lowest extent of phosphorylation in MCF-7 cells was detected for 6b with the relative level of 0.33 for p-Ser529 p65, and for 6a with the relative level of 0.82 for Ser129 Akt1.
The MCF-7 cells growing exponentially were seeded at 4.8 × 10^5 cells in 6-cm-diameter plates. Subsequently, compounds were added in a final concentration of 0.5% DMSO. […] The protein concentration was determined using Bradford assay. […]
For densitometry, immunoblots were quantified using the Fiji distribution of the ImageJ 1.52a software (National Institutes of Health, Bethesda, MD, USA, and the University of Wisconsin, Madison, WI, USA). […]

MDA-MB-231 cells [9] = assay: Cleaved PARP1 Western blot, MDA-MB-231; type: cell-based, human; conditions: MDA-MB-231, 24-h treatment, compound at its EC50, untreated cells = one relative unit
[10] = tested on: protein kinase CK2 in MCF-7 cells; assay: Intracellular inhibition of CK2, Western blot of p-Ser529 p65 and p-Ser129 Akt1, MCF-7; type: cell-based, human
Excerpt: as §4
Considering an inefficient inhibition of CK2 in MCF-7, we evaluated an inhibition of CK2 in this cell line after 72 h. […] The relative levels were in the range of 0.17 to 0.8 for p-Ser529 p65 and 0.19 to 0.79 for p-Ser129 Akt1.
The MCF-7 cells growing exponentially were seeded at 4.8 × 10^5 cells in 6-cm-diameter plates. Subsequently, compounds were added in a final concentration of 0.5% DMSO. After incubation, floating cells were collected and cell monolayer was washed three times in ice-cold PBS and the cells were scraped, combined with floating cells and lysed in RIPA buffer consisting of 50 mM Tris-HCl (pH 7.4), 1% NP-40, 0.5% sodium deoxycholate, 0.1% SDS, 150 mM NaCl, 2 mM EDTA, 50 mM NaF, 0.2 mM sodium orthovanadate, and protease inhibitors cocktail. Subsequently, cells were sonicated (three times for 15 s), centrifuged at 20,000× g for 15 min at 4 °C, and the supernatants were collected and stored at −80 °C. The protein concentration was determined using Bradford assay. Then, supernatants were incubated with the Laemmli buffer for 5 min at 98 °C. Equal amounts of total protein (10 to 20 μg) were analyzed by SDS-PAGE, and subsequently, Western blotting was performed using primary antibodies in blocking buffer containing either 3% BSA (bovine serum albumin) or 3% milk in TBS-T (Tris-buffered saline (10 mM Tris-HCl (pH 8), 150 mM NaCl) containing 0.1% Tween 20 or 0.2% Triton X-100) for 1 h. After overnight incubation at 4 °C with the primary antibodies, the membranes were washed with TBS-T and probed with the respective secondary antibodies. The ECL substrate was used for detection and immunoblots were scanned using G Box Chemi (Syngene, Cambridge, UK) with GeneSys software (Syngene, Cambridge, UK) or were developed with the use of X-rays films. UV-irradiated Jurkat cells were used as a positive control in Western blot analysis of c-PARP1. After 2 h, one-minute UV-irradiated Jurkat leukemic T-cell line was lysed and subjected to analysis.
For densitometry, immunoblots were quantified using the Fiji distribution of the ImageJ 1.52a software (National Institutes of Health, Bethesda, MD, USA, and the University of Wisconsin, Madison, WI, USA). Phosphorylated protein densities were normalized to GAPDH densities, assuming 1 for untreated cells and then they were converted to a percent of the appropriate control.

[11] = MCF-7, 72 h treatment, compound at its EC50, relative to untreated control

SMILES | EC50 (MCF-7 cells [5]; MCF7, 24 h) [µM] | EC50 (MCF-7 cells [5]; MCF7, 48 h) [µM] | EC50 (MCF-7 cells [5]; MCF7, 72 h) [µM] | Ki (PIM1) [µM] | cells in G1 (MCF-7 cells [6]) [%] | cells in G2M (MCF-7 cells [6]) [%] | cells in S (MCF-7 cells [6]) [%] | EC50 (MDA-MB-231 cells [7]; 24 h) [µM] | EC50 (MDA-MB-231 cells [7]; 48 h) [µM] | EC50 (MDA-MB-231 cells [7]; 72 h) [µM] | melting point [°C] | remaining activity at 5 µM ([3]; 5 µM compound) [%] | remaining activity at 10 µM ([3]; 10 µM compound) [%] | remaining activity at 5 µM ([4]; 5 µM compound) [%] | remaining activity at 10 µM ([4]; 10 µM compound) [%] | remaining activity at 5 µM (PIM1; 5 µM compound) [%] | remaining activity at 10 µM (PIM1; 10 µM compound) [%] | also measured
CC(=O)OCC(CCn1cnc2cnc(N)nc21)COC(C)=O [famciclovir] |  |  |  |  |  |  |  |  |  |  |  |  |  |  |  |  |  | bioavailability relative to parent penciclovir [1]: 15 fold
Brc1c(Br)c(Br)c2[nH]cnc2c1Br [Compound 1, 4,5,6,7-tetrabromo-1H-benzimidazole, reference compound] | 20.8 ± 1.49 | 18.8 ± 1.6 | 16.9 ± 1.36 | 0.27 | 57.7 | 17.2 | 25.1 | 51.9 ± 14.4 | 25.1 ± 2.04 | 24.9 ± 0.25 |  |  |  |  |  |  |  | necrotic cells (of total cells) (MCF-7 cells [2]): 25%; remaining activity at 5 µM [3]: 9.6 ± 2.6%; remaining activity at 10 µM [3]: 5 ± 1.2%; remaining activity at 5 µM [4]: 19.3 ± 0.2%; remaining activity at 10 µM [4]: 12.4 ± 0.1%; remaining activity at 5 µM (PIM1): 11.2 ± 0.2%; remaining activity at 10 µM (PIM1): 5.7 ± 0.5%
CCCCCCCC(=O)OCCCn1c(C)nc2c(Br)c(Br)c(Br)c(Br)c21 [Compound 6c, 3-(4,5,6,7-Tetrabromo-2-methyl-1H-benzimidazol-1-yl)propyl octanoate] | 25.6 ± 12.3 | 20.5 ± 2.92 | 14.8 ± 2.14 |  | 58.9 | 13.4 | 27.7 | 61.3 ± 2.23 | 29.8 ± 9.85 | 21.3 ± 2.24 | 61 to 65 | 90.2 ± 4.7 | 80.8 ± 1.9 | 89.9 ± 5.2 | 84.3 ± 10.4 | 95.2 ± 9.4 | 79.8 ± 8.6 | relative level of p-Ser529 p65 [8]: 0.32; relative level of c-PARP1 (MDA-MB-231 cells [9]): 7.14
CCCC(=O)OCCCn1c(C)nc2c(Br)c(Br)c(Br)c(Br)c21 [Compound 6a, 3-(4,5,6,7-Tetrabromo-2-methyl-1H-benzimidazol-1-yl)propyl butanoate] | 20.2 ± 1.74 | 18.1 ± 0.52 | 16.5 ± 1.13 | 1.94 ± 0.16 | 56.3 | 18.5 | 25.2 | 52.2 ± 11.7 | 20.5 ± 1.97 | 16.9 ± 4.07 | 81 to 82 | 75.6 ± 5.9 | 49.6 ± 0.8 | 81.5 ± 8 | 68.4 ± 9.8 | 38.8 ± 3.1 | 19 ± 0.1 | relative level of p-Ser129 Akt1 ([10]; MCF-7, 24 h treatment, compound at its 72-h EC50, relative to untreated control): 0.82; relative level of p-Ser129 Akt1 [10, 11]: 0.30; relative level of p-Ser529 p65 [10, 11]: 0.19
